From PubChem BioAssay (NCI) come the findings set out here.

Among the test systems are HCT-116 colon; SF-539 CNS; BT-549 breast; CAKI-1 renal; NCI-H522 lung; SF-295 CNS; SW-620 colon; NCI-H460 lung; ACHN renal; COLO 205 colon.
What all share (test): NCI tumour cell line growth inhibition, 48 h

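Results reflect a 48-hour exposure of cells in 96-well plates to compound at five concentrations. GI50: concentration for 50% inhibition of growth. TGI marks complete inhibition of growth.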 Some results are limits rather than exact numbers.

`COc1cc2ncnc(Oc3ccc(NC(=O)Nc4ccc(CN5CCOCC5)c(C(F)(F)F)c4)c4ccccc34)c2cc1OC`: the GI50 in the test on HCT-116 colon is 0.802 µM; in the test with SF-539 CNS it was 1.36 µM; in the test with BT-549 breast, 1.11 µM; in the test with CAKI-1 renal, 0.454 µM; in the test on NCI-H522 lung, 0.419 µM; in the test with SF-295 CNS, 1.36 µM. Also, the GI50 was 1.04 µM in the test on SW-620 colon, 1.37 µM in the test with NCI-H460 lung, 0.303 µM with ACHN renal and 0.558 µM in the test on COLO 205 colon. Besides, the TGI was determined as 2.55 µM with HCT-116 colon; 16.1 µM with SF-539 CNS; 5.28 µM in the test on BT-549 breast; 3.16 µM in the test on CAKI-1 renal; 3.25 µM in the test with NCI-H522 lung; 5.54 µM in the test on SF-295 CNS. For the same compound, the TGI in the test on SW-620 colon stood at 7.43 µM; in the test on NCI-H460 lung, 3.64 µM; with ACHN renal, 1.41 µM; in the test with COLO 205 colon, 3.91 µM.

`CC(C)(C)NCC(O)c1ccccc1Cl` (configuration not stated): the GI50 with HCT-116 colon, with SF-539 CNS, in the test on BT-549 breast, with CAKI-1 renal, in the test with NCI-H522 lung and in the test on SF-295 CNS was above 100 µM each time. In addition, the GI50 in the test with SW-620 colon, in the test on NCI-H460 lung, in the test with ACHN renal and in the test on COLO 205 colon was above 100 µM throughout. Further, the TGI in the test on HCT-116 colon, in the test with SF-539 CNS, in the test with BT-549 breast, in the test with CAKI-1 renal, in the test on NCI-H522 lung and with SF-295 CNS was above 100 µM throughout. In addition, the TGI in the test with SW-620 colon, with NCI-H460 lung, in the test with ACHN renal and in the test with COLO 205 colon was above 100 µM in each case.

`C=C1C(=O)O[C@@H]2/C=C(/C)[C@@H](OC(C)=O)C[C@@H](O)/C(C)=C\[C@@H](OC(=O)[C@]3(C)O[C@@H]3C)[C@@H]12`: the TGI in the test with HCT-116 colon is 13.6 µM; with SF-539 CNS, 46.5 µM; in the test with BT-549 breast it was 18.8 µM; in the test with CAKI-1 renal, 11.1 µM; with NCI-H522 lung it was 2.81 µM; with SF-295 CNS, above 100 µM. The TGI in the test on SW-620 colon amounted to 18.5 µM; with NCI-H460 lung it was 72.9 µM; with ACHN renal it was 26.8 µM; in the test with COLO 205 colon, 19.4 µM.

For `Cc1cc2nc3c(C#N)c(C)c(CCCl)c(Cl)n3c2cc1C`, the TGI is 3.06 µM with HCT-116 colon; 5.09 µM with SF-539 CNS; 7.15 µM with BT-549 breast; 9.43 µM in the test on CAKI-1 renal; above 100 µM with NCI-H522 lung; 13.8 µM with SF-295 CNS. Further, the TGI was 5.79 µM in the test on SW-620 colon, above 36.6 µM in the test on NCI-H460 lung, 11.1 µM in the test on ACHN renal and 14.8 µM in the test with COLO 205 colon.

Take `COc1cc2c(cc1OC)C(Cl)C(c1ccc(Br)cc1)=C2Cl` (configuration not stated): the TGI with HCT-116 colon turned out to be 22.7 µM; in the test on SF-539 CNS, 26.1 µM; in the test on BT-549 breast it was 5.44 µM; with CAKI-1 renal, 32 µM; in the test with NCI-H522 lung it was 12.8 µM; in the test on SF-295 CNS, 30.5 µM. In addition, the TGI in the test on SW-620 colon turned out to be 23.4 µM; with NCI-H460 lung, 25.8 µM; with ACHN renal it was 21.3 µM; in the test with COLO 205 colon, 29.1 µM.

Turning to `C[C@]12CC[C@H]3[C@@H](CC[C@]4(O)C[C@@H](O)CC[C@]34C=O)[C@@]1(O)CC[C@@H]2C1=CC(=O)OC1`, the TGI in the test on HCT-116 colon worked out at 0.595 µM; in the test with SF-539 CNS it was 0.967 µM; in the test with BT-549 breast it was 1.08 µM; with CAKI-1 renal, 0.61 µM; with NCI-H522 lung, 1.4 µM; in the test with SF-295 CNS it was 1.74 µM. Also, the TGI in the test with SW-620 colon amounted to 2.79 µM; with NCI-H460 lung, 0.591 µM; with ACHN renal it was 1.49 µM; in the test with COLO 205 colon it was 6.7 µM.

Consider `Cc1cc(OCc2ccc(C(F)(F)F)cc2)c2c(c1)C(=O)C=C(NCCN1CCCC1)C2=O`, for which the GI50 was 1.85 µM with HCT-116 colon; 1.68 µM in the test on SF-539 CNS; 2.05 µM with BT-549 breast; 1.79 µM with CAKI-1 renal; 2.66 µM in the test with NCI-H522 lung; 1.88 µM in the test on SF-295 CNS. The GI50 in the test with SW-620 colon is 1.78 µM; in the test on NCI-H460 lung it was 1.84 µM; in the test with ACHN renal, 1.97 µM; in the test on COLO 205 colon it was 1.9 µM. Besides, the TGI worked out at 3.9 µM in the test with HCT-116 colon; 3.24 µM in the test with SF-539 CNS; 5.36 µM in the test on BT-549 breast; 4.83 µM in the test on CAKI-1 renal; 6.05 µM with NCI-H522 lung; 4 µM with SF-295 CNS. Further, the TGI with SW-620 colon worked out at 3.48 µM; in the test on NCI-H460 lung, 3.43 µM; in the test on ACHN renal, 4.08 µM; in the test with COLO 205 colon, 3.72 µM.

For `CC(=O)OC1CC2(C)C(=CC1C1SCCS1)CCC1C2CCC2(C)C(OC(C)=O)CCC12` (configuration not stated), the TGI in the test on HCT-116 colon was above 100 µM; with SF-539 CNS, above 100 µM; with BT-549 breast it was above 100 µM; with CAKI-1 renal, above 100 µM; in the test on NCI-H522 lung, above 100 µM; in the test with SF-295 CNS it was 90 µM. The TGI in the test with SW-620 colon, with NCI-H460 lung, with ACHN renal and in the test with COLO 205 colon was above 100 µM throughout.

Consider `[N-]=[N+]=C(C(=O)CN1CCCC1=O)S(=O)(=O)c1ccccc1`, for which the TGI with HCT-116 colon, in the test with SF-539 CNS, with BT-549 breast, in the test on NCI-H522 lung, in the test with SF-295 CNS and in the test with SW-620 colon was above 100 µM in each case. The TGI in the test with NCI-H460 lung, with ACHN renal and in the test with COLO 205 colon was above 100 µM throughout.

For `COc1ccc(C(=O)/C=C/c2ccc(OCc3cccc(C(F)(F)F)c3)c(OC)c2)cc1OC`, the GI50 is 34.9 µM in the test on HCT-116 colon; 65.3 µM in the test on SF-539 CNS; 38.1 µM in the test with BT-549 breast; 39.2 µM in the test with NCI-H522 lung; 70.3 µM in the test with SF-295 CNS; 49.7 µM with SW-620 colon. Further, the GI50 is 51.7 µM with NCI-H460 lung, 52.8 µM in the test on ACHN renal and 61.6 µM in the test with COLO 205 colon. Moreover, the TGI is above 1000 µM in the test on HCT-116 colon; above 1000 µM in the test on SF-539 CNS; 476 µM in the test with BT-549 breast; above 1000 µM in the test with NCI-H522 lung; above 1000 µM in the test on SF-295 CNS; above 1000 µM with SW-620 colon. Besides, the TGI in the test with NCI-H460 lung, in the test with ACHN renal and with COLO 205 colon was above 1000 µM throughout.
